Measurements reported in patent US10716769B2 (GUANGZHOU JTREAT BIOSCI. LTD., priority 2015, dated 2020).
In brackets after ≈: the same amount, converted by molar mass.

Columns and labels:
Vero cells = experiment: Half toxic concentration in the anti-herpes screening; assay type: cell-based, African green monkey
Protocol: Vero cells (kidney cells of African green monkey) are used as viral hosts to test the inhibition degree of the samples to cytopathic effects of the Vero cell caused by herpes virus type I and type II. 2. Sample treatment: the sample is dissolved in DMSO at an appropriate concentration before use, and diluted with the culture medium 3 times at a total of 8 dilutions for test. 4.

[1] = test system: human umbilical vein endothelial cell line (ECV304); experiment: MTT in vitro cell inhibition; assay type: cell-based; details: 3 days
From the text: (§1) An effective amount of the above compounds and/or the compositions containing the same used as an active ingredient have an effect on inhibiting the tumor cells. The present invention detects the inhibitory effect of the hydroxy-substituted benzophenone compounds on the proliferation of the in vitro cultured human tumor cells by the methylthiazolyl tetrazolium method.
(§2) The method is used to detect cell viability. […] Particles can be dissolved by dimethyl sulfoxide (DMSO) isopropyl alcohol or 10% acidified SDS (sodium dodecyl sulfate), and a microplate reader is used to measure the OD value at A570 wavelength, which indirectly reflects the number of live cells. The method is used for detection of the cytokines bioactivity, as well as anti-tumor drugs and tumor radiosensitivity and cytotoxicity test, and has the characteristics of being simple, fast, economical, sensitive and accurate and having good reproducibility and no need to use radionuclides. This method has been widely used in screening preclinical anticancer drugs and detecting the drug sensitivity of fresh tumor cells. The method is as below:
(§3) (1) The tumor cell suspension prepared by 0.25% of trypsin digestion and adjusted to a cell concentration of 10^5/ml with RPMI1640 containing 10% fetal calf serum is added to a 96-well plate with 100 μl for each well, cultured 24 hours, and then different dosages of drugs are added with 100 μl/well, for which, the negative control groups, positive control groups and withering wells are set, and 4 parallel wells are set for each group.
(§4) (2) They are continually cultured in incubator containing 5% of CO2 at 37° C. for 24 to 48 hours. MTT solution (5 g/L) is added to each well before the termination of the experiment. The OD value at A570 nm is detected by microplate reader. The OD value at A570 of the negative group without the addition of drugs is taken as a control. The cell survival rate and cell inhibition rate of drugs are calculated according to the following formula: Cell survival rate=(OD value of test group/OD value of control group)×100% Cell inhibition rate (%)=(OD value of the control group−OD value of the test group/(OD value of the control group−OD value of the blank group)
(§5) 1. Tumor cell lines: human glioma cell line (U251), human colon cancer cell line (LOVO), human hepatoma cell line (HepG2), human lung cancer cell line (PC84045), human endometrial carcinoma cell line (JEC), human renal carcinoma (GRC), human gastric cancer cell line (MCG804), human cervical cancer cell line (HeLa), human hepatocellular carcinoma cell line (BEL-7402) and human umbilical vein endothelial cell line (ECV304) purchased from Animal Experimental Center of Zhongshan Medical College, and preserved by the present laboratory.
(§6) The tumor cell lines are cultured in RPMI-1640 medium containing 15% of the newborn bovine serum in a conventional manner, placed in the humidification incubator containing 5% of CO2 for being cultured at 37° C., and are observed for growth by an inverted microscope. A subculture is conducted every about 3-5 days, the cells in logarithmic growth phase are adopted to be digested with 0.25% of trypsin, and the serum-free RPMI-1640 medium is used for culturing the cell suspension; the blood counting plate makes counting, the trypan blue exclusion tests the cell activity, and the cell viability>95% is used for formal tests.
(§7) Liquid preparation: the compounds are labeled with the codes respectively, DMSO is used to dissolve each compound, the bacterial filter is used to remove bacteria, and each compound is prepared into 10^−4 g/ml, 10^−5 g/ml, 10^−6 g/ml and preserved at 4° C. for use. […]

[2] = test system: human endometrial carcinoma cell line (JEC); experiment: MTT in vitro tumor cell inhibition; assay type: cell-based; details: 3 days
From the text: as §1, §2, §3, §4, §5, §6, §7

[3] = test system: human glioma cell line (U251); experiment: MTT in vitro tumor cell inhibition; assay type: cell-based; details: 3 days; for Inhibitory rate, sensitivity class: U251, 10^−6 g/ml
From the text: as §1, §2, §3, §4, §5, §6, §7

[4] = test system: human colon cancer cell line (LOVO); experiment: MTT in vitro tumor cell inhibition; assay type: cell-based; details: 3 days
From the text: as §1, §2, §3, §4, §5, §6, §7

[5] = test system: human cervical cancer cell line (HeLa); experiment: MTT in vitro tumor cell inhibition; assay type: cell-based; details: 3 days
From the text: as §1, §2, §3, §4, §5, §6, §7

[6] = test system: human gastric cancer cell line (MCG804); experiment: MTT in vitro tumor cell inhibition; assay type: cell-based; details: 3 days
From the text: as §1, §2, §3, §4, §5, §6, §7

[7] = test system: human hepatoma cell line (HepG2); experiment: MTT in vitro tumor cell inhibition; assay type: cell-based; details: 3 days
From the text: as §1, §2, §3, §4, §5, §6, §7

[8] = test system: human lung cancer cell line (PC84045); experiment: MTT in vitro tumor cell inhibition; assay type: cell-based; details: 3 days
From the text: as §1, §2, §3, §4, §5, §6, §7

MCF7 = experiment: MTT in vitro tumor cell inhibition; assay type: cell-based; details: 3 days
From the text: as §1, §2, §3, §4, §6
Liquid preparation: the compounds are labeled with the codes respectively, DMSO is used to dissolve each compound, the bacterial filter is used to remove bacteria, and each compound is prepared into 10^−4 g/ml, 10^−5 g/ml, 10^−6 g/ml and preserved at 4° C. for use.
MTT method: a bottle of 4-5 days old cells in the exponential growth phase are adopted to be cultured, and added with an appropriate amount of Trypsin-EDTA solution, so as to enable the adherent cells to fall off, and are prepared with 10 ml of RPMI-1640 medium containing 15% newborn bovine serum into suspensions; after stained with trypan blue, the cell number is counted on the blood counting plate to ensure that the live cells is more than 97%; the cell suspensions are diluted by the complete medium so that each […] of solution contains 5000-400000 cells; the 96-well plate is used with 200 μl of cell suspensions added into each. The 96-well plate is placed at 37° C. in 5% of CO2 containing incubator for 24 hours; the test compounds are diluted at 3 dilutions with 5 wells in parallel for each concentration; the serum-free RPMI1640 is used as the control group. […]

| SMILES | TC50 half toxic concentration (Vero cells) [µg/mL] | Inhibitory rate % ([1]; ECV304, 10^−4 g/ml) [%] | Inhibitory rate % ([2]; 10^−4 g/ml) [%] | Inhibitory rate % ([2]; 10^−5 g/ml) [%] | Inhibitory rate, sensitivity class ([2]; 10^−6 g/ml) | Inhibitory rate % ([3]; U251, 10^−4 g/ml) [%] | Inhibitory rate % ([3]; U251, 10^−5 g/ml) [%] | Inhibitory rate, sensitivity class [3] | Inhibitory rate % ([4]; 10^−4 g/ml) [%] | Inhibitory rate, sensitivity class ([4]; 10^−5 g/ml) | Inhibitory rate, sensitivity class ([4]; 10^−6 g/ml) | Inhibitory rate % ([5]; 10^−4 g/ml) [%] | Inhibitory rate, sensitivity class ([5]; 10^−6 g/ml) | Inhibitory rate % ([6]; MCG804, 10^−4 g/ml) [%] | Inhibitory rate, sensitivity class ([6]; MCG804, 10^−6 g/ml) | Inhibitory rate % ([7]; HepG2, 10^−4 g/ml) [%] | Inhibitory rate, sensitivity class ([7]; HepG2, 10^−6 g/ml) | Inhibitory rate % ([8]; PC84045, 10^−4 g/ml) [%] | Inhibitory rate % (MCF7; MCF7, 10^−4 g/ml) [%] | Inhibitory rate, sensitivity class (MCF7; MCF7, 10^−6 g/ml) | also measured |
| --- | --- | --- | --- | --- | --- | --- | --- | --- | --- | --- | --- | --- | --- | --- | --- | --- | --- | --- | --- | --- | --- |
| O=C(c1cc(O)c(O)cc1O)c1ccc(O)c(O)c1O | 86.23 (≈ 310 µM) | 72.41 | 83.16 | 42.57 | insensitive (<30% means insensitive) | 68.82 | 31.35 | insensitive (<30% means insensitive) | 51.19 | insensitive (<30% means insensitive) | insensitive (<30% means insensitive) | 60.92 | insensitive (<30% means insensitive) | 83.48 | insensitive (<30% means insensitive) | 85.12 | insensitive (<30% means insensitive) | 82.49 | 73.19 | insensitive (<30% means insensitive) | Inhibitory rate % ([1]; ECV304, 10^−5 g/ml): 53.62%; Inhibitory rate % ([1]; ECV304, 10^−6 g/ml): 30.75%; Inhibitory rate, sensitivity class ([5]; 10^−5 g/ml): insensitive (<30% means insensitive); Inhibitory rate % ([6]; MCG804, 10^−5 g/ml): 72.89%; Inhibitory rate % ([7]; HepG2, 10^−5 g/ml): 51.57%; Inhibitory rate % ([8]; PC84045, 10^−5 g/ml): 70.97%; Inhibitory rate % ([8]; PC84045, 10^−6 g/ml): 49.70%; Inhibitory rate % (MCF7; MCF7, 10^−5 g/ml): 35.48% |
| O=C(c1ccc(O)c(O)c1O)c1ccc(O)c(O)c1O [2,3,4,2′,3′,4′-hexahydroxybenzophenone] | 12.35 (≈ 44.4 µM) | 79.37 | 85.63 | 42.79 | insensitive (<30% means insensitive) | 83.26 | 30.87 | insensitive (<30% means insensitive) | – | insensitive (<30% means insensitive) | insensitive (<30% means insensitive) | 61.12 | insensitive (<30% means insensitive) | 80.93 | insensitive (<30% means insensitive) | 86.15 | insensitive (<30% means insensitive) | 84.60 | 76.37 | insensitive (<30% means insensitive) | Inhibitory rate, sensitivity class ([1]; ECV304, 10^−5 g/ml): insensitive (<30% means insensitive); Inhibitory rate, sensitivity class ([1]; ECV304, 10^−6 g/ml): insensitive (<30% means insensitive); Inhibitory rate, sensitivity class ([4]; 10^−4 g/ml): insensitive (<30% means insensitive); Inhibitory rate, sensitivity class ([5]; 10^−5 g/ml): insensitive (<30% means insensitive); Inhibitory rate % ([6]; MCG804, 10^−5 g/ml): 30.12%; Inhibitory rate % ([7]; HepG2, 10^−5 g/ml): 75.54%; Inhibitory rate % ([8]; PC84045, 10^−5 g/ml): 72.34%; Inhibitory rate, sensitivity class ([8]; PC84045, 10^−6 g/ml): insensitive (<30% means insensitive); Inhibitory rate % (MCF7; MCF7, 10^−5 g/ml): 43.52% |
| O=C(c1ccccc1)c1ccc(O)c(O)c1O [2,3,4-trihydroxybenzophenone] | 53.42 (≈ 232 µM) | 89.63 | 86.79 | 40.97 | insensitive (<30% means insensitive) | 85.42 | 43.57 | insensitive (<30% means insensitive) | 90.02 | – | insensitive (<30% means insensitive) | 89.81 | insensitive (<30% means insensitive) | 87.14 | insensitive (<30% means insensitive) | 93.40 | insensitive (<30% means insensitive) | 85.75 | 78.59 | insensitive (<30% means insensitive) | Inhibitory rate % ([1]; ECV304, 10^−5 g/ml): 45.81%; Inhibitory rate, sensitivity class ([1]; ECV304, 10^−6 g/ml): insensitive (<30% means insensitive); Inhibitory rate % ([4]; 10^−5 g/ml): 46.78%; Inhibitory rate % ([5]; 10^−5 g/ml): 34.53%; Inhibitory rate % ([6]; MCG804, 10^−5 g/ml): 62.75%; Inhibitory rate % ([7]; HepG2, 10^−5 g/ml): 58.05%; Inhibitory rate % ([8]; PC84045, 10^−5 g/ml): 32.79%; Inhibitory rate, sensitivity class ([8]; PC84045, 10^−6 g/ml): insensitive (<30% means insensitive); Inhibitory rate % (MCF7; MCF7, 10^−5 g/ml): 38.60% |
| O=C(c1ccc(O)cc1O)c1ccc(O)cc1O [2,4,2′,4′-tetrahydroxybenzophenone] | 111.11 (≈ 451 µM) | 42.13 | 46.70 | – | insensitive (<30% means insensitive) | – | – | – | 53.29 | insensitive (<30% means insensitive) | insensitive (<30% means insensitive) | 31.05 | insensitive (<30% means insensitive) | 38.95 | insensitive (<30% means insensitive) | 74.85 | insensitive (<30% means insensitive) | 53.40 | 45.73 | insensitive (<30% means insensitive) | Inhibitory rate, sensitivity class ([1]; ECV304, 10^−5 g/ml): insensitive (<30% means insensitive); Inhibitory rate, sensitivity class ([1]; ECV304, 10^−6 g/ml): insensitive (<30% means insensitive); Inhibitory rate, sensitivity class ([2]; 10^−5 g/ml): insensitive (<30% means insensitive); Inhibitory rate, sensitivity class ([5]; 10^−5 g/ml): insensitive (<30% means insensitive); Inhibitory rate, sensitivity class ([6]; MCG804, 10^−5 g/ml): insensitive (<30% means insensitive); Inhibitory rate, sensitivity class ([7]; HepG2, 10^−5 g/ml): insensitive (<30% means insensitive); Inhibitory rate, sensitivity class ([8]; PC84045, 10^−5 g/ml): insensitive (<30% means insensitive); Inhibitory rate, sensitivity class ([8]; PC84045, 10^−6 g/ml): insensitive (<30% means insensitive); Inhibitory rate, sensitivity class (MCF7; MCF7, 10^−5 g/ml): insensitive (<30% means insensitive) |
